Results as given in ChEMBL document CHEMBL3045479, “Synthesis and anti-cancer activity of some novel C-17 analogs of ursolic and oleanolic acids” (2013).

Legend:
Assay type in all cases: functional
THP-1 = assay: Growth inhibition of Homo sapiens (human) THP1 cells at 10 uM after 48 hr by SRB assay; settings: THP-1, 48 h, read-out: GI
PC-3 = assay: Growth inhibition of Homo sapiens (human) PC3 cells at 10 uM after 48 hr by SRB assay; settings: PC-3, 48 h, read-out: GI
COLO 205 = assay: Growth inhibition of Homo sapiens (human) COLO205 cells at 10 uM after 48 hr by SRB assay; settings: COLO 205, 48 h, read-out: GI
A549 = assay: Growth inhibition of Homo sapiens (human) A549 cells at 10 uM after 48 hr by SRB assay; settings: A549, 48 h, read-out: GI
IMR-32 = assay: Growth inhibition of Homo sapiens (human) IMR32 cells at 10 uM after 48 hr by SRB assay; settings: IMR-32, 48 h, read-out: GI
SiHa = assay: Growth inhibition of Homo sapiens (human) SiHa cells at 10 uM after 48 hr by SRB assay; settings: read-out: GI
HeLa = assay: Growth inhibition of Homo sapiens (human) HeLa cells at 10 uM after 48 hr by SRB assay; settings: read-out: GI
SW-620 = assay: Growth inhibition of Homo sapiens (human) SW620 cells at 10 uM after 48 hr by SRB assay; settings: SW-620, 48 h, read-out: GI

Row | SMILES | inhibition of growth at 10 µM (THP-1) | inhibition of growth at 10 µM (PC-3) | inhibition of growth at 10 µM (COLO 205) | inhibition of growth at 10 µM (A549) | inhibition of growth at 10 µM (IMR-32) | inhibition of growth at 10 µM (SiHa) | inhibition of growth at 10 µM (HeLa) | inhibition of growth at 10 µM (SW-620)
1 | C[C@H]1[C@H](C)CC[C@]2(C(=O)OCCCBr)CC[C@]3(C)C(=CC[C@@H]4[C@@]5(C)CC[C@H](O)C(C)(C)[C@@H]5CC[C@]43C)[C@H]12 [BROMOPROPYL-3BETA-HYDROXY-URS-12-EN-28-OATE] | 68% | 0% | 10% | 9% | – | – | – | –
2 | C[C@H]1[C@H](C)CC[C@]2(C(=O)OCCCCCBr)CC[C@]3(C)C(=CC[C@@H]4[C@@]5(C)CC[C@H](O)C(C)(C)[C@@H]5CC[C@]43C)[C@H]12 [BROMOPENTYL-3BETA-HYDROXY-URS-12-EN-28-OATE] | 10% | 6% | 1% | 7% | – | – | – | –
3 | C[C@H]1[C@H](C)CC[C@]2(C(=O)OCBr)CC[C@]3(C)C(=CC[C@@H]4[C@@]5(C)CC[C@H](O)C(C)(C)[C@@H]5CC[C@]43C)[C@H]12 [BROMOMETHYL-3BETA-HYDROXY-URS-12-EN-28-OATE] | 49% | 6% | 13% | 7% | – | – | – | –
4 | C[C@H]1[C@H](C)CC[C@]2(C(=O)OCCBr)CC[C@]3(C)C(=CC[C@@H]4[C@@]5(C)CC[C@H](O)C(C)(C)[C@@H]5CC[C@]43C)[C@H]12 | 54% | 23% | 12% | 28% | – | – | – | –
5 | O=c1[nH]cc(F)c(=O)[nH]1 [FLUOROURACIL] | 69% | – | 47% | 30% | 29% | 38% | 36% | 42%
6 | C[C@H]1[C@H](C)CC[C@]2(C(=O)O)CC[C@]3(C)C(=CC[C@@H]4[C@@]5(C)CC[C@H](O)C(C)(C)[C@@H]5CC[C@]43C)[C@H]12 [URSOLIC ACID] | 52% | 60% | 7% | 8% | 13% | 67% | 65% | 71%
7 | C[C@H]1[C@H](C)CC[C@]2(C(=O)OCCCCCCCCBr)CC[C@]3(C)C(=CC[C@@H]4[C@@]5(C)CC[C@H](O)C(C)(C)[C@@H]5CC[C@]43C)[C@H]12 [BROMOOCTYL-3BETA-HYDROXY-URS-12-EN-28-OATE] | 4% | 1% | 0% | 0% | – | – | – | –
8 | COC(=O)[C@]12CC[C@@H](C)[C@H](C)[C@H]1C1=CC[C@@H]3[C@@]4(C)CC[C@H](O)C(C)(C)[C@@H]4CC[C@@]3(C)[C@]1(C)CC2 [METHYL URSOLATE] | – | – | 0% | 20% | 11% | 21% | 2% | 0%
9 | COC(=O)COC(=O)[C@]12CCC(C)(C)C[C@H]1C1=CC[C@@H]3[C@@]4(C)CC[C@H](O)C(C)(C)[C@@H]4CC[C@@]3(C)[C@]1(C)CC2 [3BETA-HYDROXY-OLEAN-12-EN-28-METHYL ACETOACETATE] | – | – | 2% | 25% | 18% | 19% | 13% | 4%
10 | C[C@H]1[C@H](C)CC[C@]2(C(=O)OCCCCBr)CC[C@]3(C)C(=CC[C@@H]4[C@@]5(C)CC[C@H](O)C(C)(C)[C@@H]5CC[C@]43C)[C@H]12 [BROMOBUTYL-3BETA-HYDROXY-URS-12-EN-28-OATE] | 7% | 23% | 10% | 2% | – | – | – | –
11 | CO[C@@]12[C@H](COC(N)=O)C3=C(C(=O)C(C)=C(N)C3=O)N1C[C@@H]1N[C@@H]12 [MITOMYCIN] | – | 61% | – | – | – | – | – | –
12 | C[C@H]1[C@H](C)CC[C@]2(C(=O)OCCCCCCCCCBr)CC[C@]3(C)C(=CC[C@@H]4[C@@]5(C)CC[C@H](O)C(C)(C)[C@@H]5CC[C@]43C)[C@H]12 [BROMONONYL-3BETA-HYDROXY-URS-12-EN-28-OATE] | 0% | 9% | 3% | 0% | – | – | – | –
13 | CC(C)=CCOC(=O)[C@]12CC[C@@H](C)[C@H](C)[C@H]1C1=CC[C@@H]3[C@@]4(C)CC[C@H](O)C(C)(C)[C@@H]4CC[C@@]3(C)[C@]1(C)CC2 | – | – | 0% | 12% | 19% | 21% | 24% | 2%
14 | C[C@H]1[C@H](C)CC[C@]2(C(=O)OCCCCCCBr)CC[C@]3(C)C(=CC[C@@H]4[C@@]5(C)CC[C@H](O)C(C)(C)[C@@H]5CC[C@]43C)[C@H]12 [BROMOHEXYL-3BETA-HYDROXY-URS-12-EN-28-OATE] | 3% | 0% | 0% | 0% | – | – | – | –
15 | C[C@H]1[C@H](C)CC[C@]2(C(=O)OCCCCCCCCCCCCBr)CC[C@]3(C)C(=CC[C@@H]4[C@@]5(C)CC[C@H](O)C(C)(C)[C@@H]5CC[C@]43C)[C@H]12 [BROMODODECYL-3BETA-HYDROXY-URS-12-EN-28-OATE] | 0% | 0% | 0% | 0% | – | – | – | –
16 | CC1(C)CC[C@]2(C(=O)O)CC[C@]3(C)C(=CC[C@@H]4[C@@]5(C)CC[C@H](O)C(C)(C)[C@@H]5CC[C@]43C)[C@@H]2C1 [OLEANOLIC_ACID] | – | – | 33% | 24% | 22% | 3% | 26% | 24%
